Experimental data: patent publication US9096598B2 (Merck Sharp & Dohme Corp., priority 2011, dated 2015)

Assays:
JAK2 = target: T1, JAK2 (Homo sapiens, UniProt O60674); test: Jak Biochemical HTRF Assay (JAK2); conditions: recombinant purified GST-tagged catalytic domain, [ATP] 8.5 μM, values given as range classes
T1 construct: recombinant purified GST-tagged catalytic domain for each enzyme; purchased Invitrogen M4290
Outline: (§1)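 GST-tagged recombinant catalytic domain and biotinylated peptide substrate were preincubated with compound for 30 min at room temperature in kinase buffer with 2 mM DTT and 0.05% BSA. ATP then started a 120 min reaction. Phosphopeptide was detected by HTRF (Eu-pY20/streptavidin-Dylight 650, 665/615 nm ratio), and IC50 came from a 4-parameter fit of percent inhibition.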

JAK3 = target: T2, JAK3 (Homo sapiens, UniProt P52333); test: Jak Biochemical HTRF Assay (JAK3); conditions: recombinant purified GST-tagged catalytic domain, [ATP] 2.9 μM, values given as range classes
T2 construct: recombinant purified GST-tagged catalytic domain for each enzyme; purchased Invitrogen M4290
T2 sequence (P52333 822-1111 limits assumed): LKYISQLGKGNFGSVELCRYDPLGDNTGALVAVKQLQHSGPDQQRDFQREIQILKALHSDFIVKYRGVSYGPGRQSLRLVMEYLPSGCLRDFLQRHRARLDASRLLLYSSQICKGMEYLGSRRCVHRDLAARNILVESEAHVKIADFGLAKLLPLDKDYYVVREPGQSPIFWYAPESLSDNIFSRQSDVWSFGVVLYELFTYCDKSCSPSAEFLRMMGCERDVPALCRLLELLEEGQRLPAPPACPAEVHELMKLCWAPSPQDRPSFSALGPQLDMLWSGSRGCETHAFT
Outline: as §1

T1 sequence (O60674 849-1124 limits assumed): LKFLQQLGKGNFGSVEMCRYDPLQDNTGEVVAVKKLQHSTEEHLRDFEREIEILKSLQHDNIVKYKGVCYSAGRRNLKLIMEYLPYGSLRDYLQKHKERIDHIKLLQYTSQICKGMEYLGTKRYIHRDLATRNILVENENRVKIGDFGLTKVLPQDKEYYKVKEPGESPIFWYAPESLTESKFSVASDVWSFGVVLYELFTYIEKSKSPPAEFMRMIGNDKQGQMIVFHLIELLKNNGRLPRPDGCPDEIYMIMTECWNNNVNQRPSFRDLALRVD

Row | Compound | IC50 (JAK2) | IC50 (JAK3)
1 | C[C@@H](Nc1cncc(-c2c[nH]c3ncc(C(N)=O)cc23)c1)C(=O)NCC(F)(F)F [Example 1-46, 3-[5-({(1R)-1-methyl-2-oxo-2-[(2,2,2-trifluoroethyl)amino]ethyl}amino)pyridin-3-yl]-1H-pyrrolo[2,3-b]pyridine-5-carboxamide] | 10 to 500 nM | ≤ 10 nM
2 | CC1c2ncc(C(F)(F)F)n2CCN1c1cnnc(-c2c[nH]c3ncc(F)cc23)n1 (centres unmarked) [Example 1-10, 7-[3-(5-fluoro-1H-pyrrolo[2,3-b]pyridin-3-yl)-1,2,4-triazin-5-yl]-8-methyl-3-(trifluoromethyl)-5,6,7,8-tetrahydroimidazo[1,2-a]pyrazine] | 10 to 500 nM | 10 to 500 nM
3 | CC1c2ncc(C(F)(F)F)n2CCN1c1cnnc(-c2c[nH]c3ncc(Cl)cc23)n1 (centres unmarked) [Example 1-4, 7-[3-(5-chloro-1H-pyrrolo[2,3-b]pyridin-3-yl)-1,2,4-triazin-5-yl]-8-methyl-3-(trifluoromethyl)-5,6,7,8-tetrahydroimidazo[1,2-a]pyrazine] | 10 to 500 nM | ≤ 10 nM
4 | CC(C)(O)[C@@H](Nc1cncc(-c2c[nH]c3ncc(Cl)cc23)c1)C(=O)NCC(F)(F)F [Example 1-49, N~2~-[5-(5-chloro-1H-pyrrolo[2,3-b]pyridin-3-yl)pyridin-3-yl]-3-hydroxy-N-(2,2,2-trifluoroethyl)-D-valinamide] | 10 to 500 nM | ≤ 10 nM
5 | CC(C)[C@H](Nc1cncc(-c2c[nH]c3ncc(Cl)cc23)c1)C(=O)NCC(F)(F)F [Example 1-52, N-18 2~-[5-(5-chloro-1H-pyrrolo[2,3-b]pyridin-3-yl)pyridin-3-yl]-N-(2,2,2-trifluoroethyl)-L-valinamide] | 10 to 500 nM | ≤ 10 nM
6 | CC(C)[C@H](Nc1cncc(-c2c[nH]c3ncc(C#N)cc23)c1)C(=O)NCC(F)(F)F [Example 1-41, N~2~-[5-(5-cyano-1H-pyrrolo[2,3-b]pyridin-3-yl)pyridin-3-yl]-N-(2,2,2-trifluoroethyl)valinamide] | 10 to 500 nM | ≤ 10 nM
7 | CC(C)[C@@H](Nc1cnnc(-c2c[nH]c3ncc(F)cc23)n1)C(=O)NCC(F)(F)F [Example 1-16, N~2~-[3-(5-fluoro-1H-pyrrolo[2,3-b]pyridin-3-yl)-1,2,4-triazin-5-yl]-N-(2,2,2-trifluoroethyl)-D-valinamide] | 10 to 500 nM | ≤ 10 nM
8 | O=C(NCC(F)(F)F)C(Nc1cncc(-c2c[nH]c3ncc(Cl)cc23)c1)C1CC1 (centres unmarked) [Example 1-48, 2-{[5-(5-chloro-1H-pyrrolo[2,3-b]pyridin-3-yl)pyridin-3-yl]amino}-2-cyclopropyl-N-(2,2,2-trifluoroethyl)acetamide] | 10 to 500 nM | ≤ 10 nM
9 | CC(C(=O)NCC(F)(F)F)n1ccc2ncc(-c3c[nH]c4ncc(Cl)cc34)cc21 (centres unmarked) [Example 1-35, 2-[6-(5-chloro-1H-pyrrolo[2,3-b]pyridin-3-yl)-1H-pyrrolo[3,2-b]pyridin-1-yl]-N-(2,2,2-trifluoroethyl)propanamide] | 10 to 500 nM | ≤ 10 nM
10 | O=C(NCC(F)(F)F)[C@H]1CCCC[C@H]1Nc1cnnc(-c2c[nH]c3ncc(F)cc23)n1 [Example 1-21, (1S,2R)-2-{[3-(5-fluoro-1H-pyrrolo[2,3-b]pyridin-3-yl)-1,2,4-triazin-5-yl]amino}-N-(2,2,2-trifluoroethyl)cyclohexane-carboxamide] | > 500 nM | 10 to 500 nM
11 | CC(C)[C@@H](Nc1cncc(-c2c[nH]c3ncc(Cl)cc23)c1)C(=O)NCC(F)(F)F [Example 1-51, N~2~-[5-(5-chloro-1H-pyrrolo[2,3-b]pyridin-3-yl)pyridin-3-yl]-N-(2,2,2-trifluoroethyl)-D-valinamide] | ≤ 10 nM | ≤ 10 nM
12 | CC(C)(Nc1cnnc(-c2c[nH]c3ncc(C#N)cc23)n1)C(=O)NCC(F)(F)F [Example 1-7, N~2~-[3-(5-cyano-1H-pyrrolo[2,3-b]pyridin-3-yl)-1,2,4-triazin-5-yl]-2-methyl-N-(2,2,2-trifluoroethyl)alaninamide] | 10 to 500 nM | ≤ 10 nM
13 | CC(C)[C@@H](Nc1cnnc(-c2c[nH]c3ncc(C#N)cc23)n1)C(=O)NCC(F)(F)F [Example 1-17, N~2~-[3-(5-cyano-1H-pyrrolo[2,3-b]pyridin-3-yl)-1,2,4-triazin-5-yl]-N-(2,2,2-trifluoroethyl)-D-valinamide] | 10 to 500 nM | ≤ 10 nM
14 | CC(C)[C@@H](Nc1cnnc(-c2c[nH]c3ncc(Cl)cc23)n1)C(=O)NCC(F)(F)F [Example 1-3, N~2~-[3-(5-chloro-1H-pyrrolo[2,3-b]pyridin-3-yl)-1,2,4-triazin-5-yl]-N-(2,2,2-trifluoroethyl)-D-valinamide] | 10 to 500 nM | ≤ 10 nM
15 | O=C(NCC(F)(F)F)[C@H]1CCCC[C@H]1Nc1cncc(-c2c[nH]c3ncc(Cl)cc23)c1 [Example 1-33, (1S,2R)-2-{[5-(5-chloro-1H-pyrrolo[2,3-b]pyridin-3-yl)pyridin-3-yl]amino}-N-(2,2,2-trifluoroethyl)cyclohexane-carboxamide] | 10 to 500 nM | ≤ 10 nM
16 | CC(C)C(Nc1cncc(-c2c[nH]c3ncc(F)cc23)c1)C(=O)NCC(F)(F)F (centres unmarked) [Example 1-2, 2-{[5-(5-fluoro-1H-pyrrolo[2,3-b]pyridin-3-yl)pyridin-3-yl]amino}-3-methyl-N-(2,2,2-trifluoroethyl)butanamide] | 10 to 500 nM | ≤ 10 nM

Continued, values first:

Row | IC50 (JAK2) | IC50 (JAK3) | Compound
17 | > 500 nM | 10 to 500 nM | CC(C)C(Nc1cncc(-c2c[nH]c3ncc(CNC(=O)C4CCCCC4)cc23)c1)C(=O)NCC(F)(F)F (centres unmarked) [Example 10-3, N-({3-[5-({2-methyl-1-[(2,2,2-trifluoroethyl)carbamoyl]prop-yl}amino)pyridin-3-yl]-1H-pyrrolo[2,3-b]pyridin-5-yl}methyl)cyclohexanecar-boxamide]
18 | 10 to 500 nM | ≤ 10 nM | CC(C)[C@H](Nc1cncc(-c2c[nH]c3ncc(OCCN4CCOCC4)cc23)c1)C(=O)NCC(F)(F)F [Example 2-15, N~2~-{5-[5-(2-morpholin-4-ylethoxy)-1H-pyrrolo[2,3-b]pyridin-3-yl]pyridin-3-yl}-N-(2,2,2-trifluoroethyl)valinamide]
19 | 10 to 500 nM | ≤ 10 nM | CC(C)[C@H](Nc1cncc(-c2c[nH]c3ncc(OCCCN(C)C)cc23)c1)C(=O)NCC(F)(F)F [Example 2-14, N~2~-(5-{5-[3-(dimethylamino)propoxy]-1H-pyrrolo[2,3-b]pyridin-3-yl}pyridin-3-yl)-N-(2,2,2-trifluoroethyl)valinamide]
20 | > 500 nM | 10 to 500 nM | CCCC(=O)NCc1cnc2[nH]cc(-c3cncc(N[C@H](C(=O)NCC(F)(F)F)C(C)C)c3)c2c1 [Example 10-9, N~2~-(5-{5-[(butanoylamino)methyl]-1H-pyrrolo[2,3-b]pyridin-3-yl}pyridin-3-yl)-N-(2,2,2-trifluoroethyl)valinamide]
21 | 10 to 500 nM | ≤ 10 nM | CC(C)[C@@H](Nc1cncc(-c2c[nH]c3ncc(C(=O)NCC4CCS(=O)(=O)C4)cc23)c1)C(=O)NCC(F)(F)F (stereo partly drawn) [Example 3-9, N-[(1,1-dioxidotetrahydrothiophen-3-yl)methyl]-3-[5-({(1R)-2-methyl-1-[(2,2,2-trifluoroethyl)carbamoyl]propyl}amino)pyridin-3-yl]-1H-pyrrolo[2,3-b]pyridine-5-carboxamide]
22 | 10 to 500 nM | 10 to 500 nM | COCc1cnc2[nH]cc(-c3nncc(N[C@@H](C(=O)NCC(F)(F)F)C(C)C)n3)c2c1 [Example 9-8, N~2~-{3-[5-(methoxymethyl)-1H-pyrrolo[2,3-b]pyridin-3-yl]-1,2,4-triazin-5-yl}-N-(2,2,2-trifluoroethyl)-D-valinamide]
23 | 10 to 500 nM | ≤ 10 nM | CC(C)[C@H](Nc1cncc(-c2c[nH]c3ncc(OCCc4ccccc4)cc23)c1)C(=O)NCC(F)(F)F [Example 2-7, N~2~-{5-[5-(2-phenylethoxy)-1H-pyrrolo[2,3-b]pyridin-3-yl]pyridin-3-yl}-N-(2,2,2-trifluoroethyl)valinamide]
24 | > 500 nM | 10 to 500 nM | CC(C)[C@H](Nc1cncc(-c2c[nH]c3ncc(CNC(=O)CC(F)(F)F)cc23)c1)C(=O)NCC(F)(F)F [Example 10-10, N-(2,2,2-trifluoroethyl)-N~2~-[5-(5-{[(3,3,3-trifluoropropanoyl)amino]methyl}-1H-pyrrolo[2,3-b]pyridin-3-yl)pyridin-3-yl]valinamide]
25 | 10 to 500 nM | ≤ 10 nM | CCCNC(=O)Nc1cnc2[nH]cc(-c3cncc(NC(C(=O)NCC(F)(F)F)C(C)C)c3)c2c1 (centres unmarked) [Example 6-2, N~2~-(5-{5-[(propylcarbamoyl)amino]-1H-pyrrolo[2,3-b]pylidin-3-yl}pyridin-3-yl)-N-(2,2,2-trifluoroethyl)valinamide]
26 | 10 to 500 nM | 10 to 500 nM | CC(C)[C@H](Nc1cncc(-c2c[nH]c3ncc(N)cc23)c1)C(=O)NCC(F)(F)F [Example 5-1, N^2-[5-(5-amino-1H-pyrrolo[2,3-b]pyridin-3-yl)pyridin-3-yl]-N-(2,2,2-trifluoroethyl)valinamide]
27 | > 500 nM | 10 to 500 nM | CC(C)[C@@H](Nc1cncc(-c2c[nH]c3ncc(C(=O)N4CCC(O)CC4)cc23)c1)C(=O)NCC(F)(F)F [Example 3-13, N~2~-(5-{5-[(4-hydroxypiperidin-1-yl)carbonyl]-1H-pyrrolo[2,3-b]pyridin-3-yl}pyridin-3-yl)-N-(2,2,2-trifluoroethyl)-D-valinamide]
28 | 10 to 500 nM | ≤ 10 nM | CC(C)[C@H](Nc1cncc(-c2c[nH]c3ncc(OC4CCOCC4)cc23)c1)C(=O)NCC(F)(F)F [Example 2-9, N~2~-{5-[5-(tetrahydro-2H-pyran-4-yloxy)-1H-pyrrolo[2,3-b]pyridin-3-yl]pyridin-3-yl}-N-(2,2,2-trifluoroethyl)valinamide]
